Experimental data as given in patent US20250129104A1, “7H-PYRROLO[2,3-D]PYRIMIDINES AND PREPARATION AND USES THEREOF” (BioSplice Therapeutics, Inc., priority 2021, published 2025).

Biological target: recombinant DYRK1A kinase (Homo sapiens (Human), UniProt Q13627)
Assay: DYRK1A kinase assay (Ser/Thr 18 peptide Z-lyte FRET assay)
Format: biochemical
Conditions: DYRK1A kinase activity; 15 μM ATP, 1 h room temperature; method text calls the value IC50
Method in brief: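 Recombinant human DYRK1A (0.25 μg/mL) with 15 μM ATP and 4 μM Ser/Thr 18 peptide, 1 h at room temperature with compound (11-point, 1:3, 10 μM top, duplicate). Z-lyte development 1 h, then coumarin/fluorescein FRET emission ratio converted to % phosphorylation; IC50 by non-linear regression.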

Row | EC50 [nM] | Structure (SMILES)
1 | 3.4 | Cn1nnc2ccc(-c3c[nH]c4nc(NCC(F)(F)F)ncc34)cc21 [Compound 824, 5-(1-Methyl-1H-benzo[d][1,2,3]triazol-6-yl)-N-(2,2,2-trifluoroethyl)-7H-pyrrolo[2,3-d]pyrimidin-2-amine]
2 | 6.7 | CO[C@H]1CC[C@H](NC(=O)c2cnn3ccc(-c4c[nH]c5nc(C6CC6)ncc45)cc23)CC1 [Compound 1465, 5-(2-Cyclopropyl-7H-pyrrolo[2,3-d]pyrimidin-5-yl)-N-(trans-4-methoxycyclohexyl)pyrazolo[1,5-a]pyridine-3-carboxamide]
3 | 4700 | Cc1nc2c(F)cc(-c3c[nH]c4nc(NCC5CN(C)C5)ncc34)cc2n1C [Compound 493, 5-(4-Fluoro-1,2-dimethyl-1H-benzo[d]imidazol-6-yl)-N-((1-methylazetidin-3-yl)methyl)-7H-pyrrolo[2,3-d]pyrimidin-2-amine]
4 | 2.1 | COc1nc(N[C@H](C)C(F)(F)F)nc2[nH]cc(-c3ccc4nnn(C)c4c3)c12 [Compound 2193, (R)-4-Methoxy-5-(1-methyl-1H-benzo[d][1,2,3]triazol-6-yl)-N-(1,1,1-trifluoropropan-2-yl)-7H-pyrrolo[2,3-d]pyrimidin-2-amine]
5 | 68.9 | CC(C)(F)CNc1ncc2c(-c3ccn4ncc(F)c4c3)c[nH]c2n1 [Compound 1157, N-(2-Fluoro-2-methylpropyl)-5-(3-fluoropyrazolo[1,5-a]pyridin-5-yl)-7H-pyrrolo[2,3-d]pyrimidin-2-amine]
6 | 3.4 | CN1CCC(NC(=O)c2cnn3ccc(-c4c[nH]c5nc(N)ncc45)cc23)CC1 [Compound 1511, 5-(2-amino-7H-pyrrolo[2,3-d]pyrimidin-5-yl)-N-(1-methylpiperidin-4-yl)pyrazolo[1,5-a]pyridine-3-carboxamide]
7 | 4.1 | CN1CCN(c2cccc(Nc3ncc4c(-c5ccc6ncccc6c5)c[nH]c4n3)c2)CC1 [Compound 1891, N-(3-(4-Methylpiperazin-1-yl)phenyl)-5-(quinolin-6-yl)-7H-pyrrolo[2,3-d]pyrimidin-2-amine]
8 | 83.2 | Cc1nnc2ccc(-c3c[nH]c4nc(NCC(C)(C)F)ncc34)cn12 [Compound 895, N-(2-Fluoro-2-methylpropyl)-5-(3-methyl-[1,2,4]triazolo[4,3-a]pyridin-6-yl)-7H-pyrrolo[2,3-d]pyrimidin-2-amine]
9 | 22.1 | Cn1cc(-c2c[nH]c3nc(NCC(C)(C)F)ncc23)ccc1=O [Compound 3, 5-(2-((2-Fluoro-2-methylpropyl)amino)-7H-pyrrolo[2,3-d]pyrimidin-5-yl)-1-methylpyridin-2(1H)-one]
10 | 153 | CC(C)(C)Cc1ncc2c(-c3cnc4nccn4c3)c[nH]c2n1 [Compound 490, 5-(Imidazo[1,2-a]pyrimidin-6-yl)-2-neopentyl-7H-pyrrolo[2,3-d]pyrimidine]
11 | 7.8 | c1cnc2cc(-c3c[nH]c4nc(NC5CCOCC5)ncc34)ccc2n1 [Compound 1934, 5-(Quinoxalin-6-yl)-N-(tetrahydro-2H-pyran-4-yl)-7H-pyrrolo[2,3-d]pyrimidin-2-amine]
12 | 123 | Cn1cc2cc(-c3c[nH]c4nc(NCC(C)(C)F)ncc34)ccc2n1 [Compound 492, N-(2-Fluoro-2-methylpropyl)-5-(2-methyl-2H-indazol-5-yl)-7H-pyrrolo[2,3-d]pyrimidin-2-amine]
13 | 17.9 | Cc1nc2ncc(-c3c[nH]c4nc(CC(C)C)ncc34)cc2n1C(C)C [Compound 585, 6-(2-Isobutyl-7H-pyrrolo[2,3-d]pyrimidin-5-yl)-1-isopropyl-2-methyl-1H-imidazo[4,5-b]pyridine]
14 | 4.3 | COc1nc(N[C@H]2CC[C@@](C)(O)CC2)nc2[nH]cc(-c3ccn4nccc4c3)c12 [Compound 2208, cis-4-((4-Methoxy-5-(pyrazolo[1,5-a]pyridin-5-yl)-7H-pyrrolo[2,3-d]pyrimidin-2-yl)amino)-1-methylcyclohexan-1-ol]
